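48-hour exposure; five concentrations; linearly interpolated endpoints. At the TGI there is no net growth.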
Legend:
Test in all cases: NCI anticancer screen, dose series, 48 h
DU-145 prostate = system: DU-145 prostate
EKVX NSCLC = system: EKVX NSCLC
HCT-116 colon = system: HCT-116 colon
HCT-15 colon = system: HCT-15 colon
HOP-62 NSCLC = system: HOP-62 NSCLC
IGROV1 ovarian = system: IGROV1 ovarian
KM12 colon = system: KM12 colon
LOX IMVI melanoma = system: LOX IMVI melanoma
MALME-3M melanoma = system: MALME-3M melanoma
MDA-MB-435 = system: MDA-MB-435
NCI-H460 lung = system: NCI-H460 lung
NCI/ADR-RES ovarian = system: NCI/ADR-RES ovarian
OVCAR-4 ovarian = system: OVCAR-4 ovarian
OVCAR-8 ovarian = system: OVCAR-8 ovarian
PC-3 prostate = system: PC-3 prostate
RXF 393 renal = system: RXF 393 renal
SF-295 CNS = system: SF-295 CNS
SK-MEL-28 melanoma = system: SK-MEL-28 melanoma
SK-MEL-5 melanoma = system: SK-MEL-5 melanoma
SW-620 colon = system: SW-620 colon

For `COc1cc(C(=O)C2C(=O)c3ccccc3C2C2(O)c3ccccc3CC2C(O)c2cc(OC)c(OC)c(OC)c2)cc(OC)c1OC` (stereo not given), the TGI (DU-145 prostate) was over 100 µM, the TGI (EKVX NSCLC) was over 100 µM and the TGI (HCT-116 colon) was over 100 µM. For the same compound, the TGI (HCT-15 colon) was over 100 µM, the TGI (HOP-62 NSCLC) was over 100 µM and the TGI (IGROV1 ovarian) was over 100 µM. For the same compound, the TGI (KM12 colon) was over 100 µM, the TGI (LOX IMVI melanoma) was over 100 µM and the TGI (MALME-3M melanoma) was over 100 µM. It also gave a TGI (MDA-MB-435) of over 100 µM, a TGI (NCI-H460 lung) of over 100 µM and a TGI (NCI/ADR-RES ovarian) of over 100 µM. For the same compound, the TGI (OVCAR-4 ovarian) was over 100 µM, the TGI (OVCAR-8 ovarian) was over 100 µM and the TGI (PC-3 prostate) was over 100 µM. It also gave a TGI (RXF 393 renal) of over 100 µM, a TGI (SF-295 CNS) of over 100 µM and a TGI (SK-MEL-28 melanoma) of over 100 µM. It also gave a TGI (SK-MEL-5 melanoma) of over 100 µM and a TGI (SW-620 colon) of over 100 µM.
`O=C(Nc1nc(C23CC4CC(CC(C4)C2)C3)cs1)c1cc2cc(Cl)ccc2oc1=O` was tested, and the TGI (DU-145 prostate) was over 100 µM, the TGI (EKVX NSCLC) was over 100 µM and the TGI (HCT-116 colon) was over 100 µM. The TGI (HCT-15 colon) was over 100 µM, the TGI (HOP-62 NSCLC) was over 100 µM and the TGI (IGROV1 ovarian) was over 100 µM. It also gave a TGI (KM12 colon) of over 100 µM, a TGI (LOX IMVI melanoma) of over 100 µM and a TGI (MALME-3M melanoma) of over 100 µM. The TGI (MDA-MB-435) was over 100 µM, the TGI (NCI-H460 lung) was over 100 µM and the TGI (NCI/ADR-RES ovarian) was over 100 µM. It also gave a TGI (OVCAR-4 ovarian) of over 100 µM, a TGI (OVCAR-8 ovarian) of over 100 µM and a TGI (PC-3 prostate) of over 100 µM. It also gave a TGI (RXF 393 renal) of over 100 µM, a TGI (SF-295 CNS) of over 100 µM and a TGI (SK-MEL-28 melanoma) of over 100 µM. It also gave a TGI (SK-MEL-5 melanoma) of over 100 µM and a TGI (SW-620 colon) of over 100 µM.
In the case of `N#CCOc1ccc(/C=C/C(=O)c2ccc(Cl)cc2)cc1`, the TGI (DU-145 prostate) was over 100 µM, the TGI (EKVX NSCLC) was over 100 µM and the TGI (HCT-116 colon) was 27.8 µM. For the same compound, the TGI (HCT-15 colon) was over 100 µM, the TGI (HOP-62 NSCLC) was 57.5 µM and the TGI (IGROV1 ovarian) was 60.4 µM. It also gave a TGI (KM12 colon) of 73.5 µM, a TGI (LOX IMVI melanoma) of 37.5 µM and a TGI (MALME-3M melanoma) of 58.4 µM. It also gave a TGI (MDA-MB-435) of over 100 µM, a TGI (NCI-H460 lung) of 64.2 µM and a TGI (NCI/ADR-RES ovarian) of 48.5 µM. For the same compound, the TGI (OVCAR-4 ovarian) was over 100 µM, the TGI (OVCAR-8 ovarian) was 93.6 µM and the TGI (PC-3 prostate) was over 100 µM. For the same compound, the TGI (RXF 393 renal) was 38.5 µM, the TGI (SF-295 CNS) was 53.9 µM and the TGI (SK-MEL-28 melanoma) was over 100 µM. For the same compound, the TGI (SK-MEL-5 melanoma) was 43.6 µM and the TGI (SW-620 colon) was 70.4 µM.
`COc1ccc(P2(=S)SP(=S)(c3ccc(Cl)cc3)S2)cc1` (stereo not given) showed a TGI (DU-145 prostate) of over 100 µM, a TGI (EKVX NSCLC) of over 100 µM and a TGI (HCT-116 colon) of over 100 µM. For the same compound, the TGI (HCT-15 colon) was over 100 µM, the TGI (HOP-62 NSCLC) was over 100 µM and the TGI (IGROV1 ovarian) was over 100 µM. The TGI (KM12 colon) was over 100 µM, the TGI (LOX IMVI melanoma) was over 100 µM and the TGI (MALME-3M melanoma) was over 100 µM. For the same compound, the TGI (MDA-MB-435) was over 100 µM, the TGI (NCI-H460 lung) was over 100 µM and the TGI (NCI/ADR-RES ovarian) was over 100 µM. For the same compound, the TGI (OVCAR-4 ovarian) was over 100 µM, the TGI (OVCAR-8 ovarian) was over 100 µM and the TGI (PC-3 prostate) was over 100 µM. It also gave a TGI (RXF 393 renal) of over 100 µM, a TGI (SF-295 CNS) of over 100 µM and a TGI (SK-MEL-28 melanoma) of over 100 µM. For the same compound, the TGI (SK-MEL-5 melanoma) was over 100 µM and the TGI (SW-620 colon) was over 100 µM.
`Cn1cc(S(=O)(=O)NC(=O)Nc2ccc(Cl)cc2)c2ccccc21` was tested, and the TGI (DU-145 prostate) was over 100 µM, the TGI (EKVX NSCLC) was over 100 µM and the TGI (HCT-116 colon) was over 100 µM. The TGI (HCT-15 colon) was 20.7 µM, the TGI (HOP-62 NSCLC) was over 100 µM and the TGI (IGROV1 ovarian) was over 100 µM. It also gave a TGI (KM12 colon) of over 100 µM, a TGI (LOX IMVI melanoma) of over 100 µM and a TGI (MALME-3M melanoma) of over 100 µM. It also gave a TGI (MDA-MB-435) of over 100 µM, a TGI (NCI-H460 lung) of over 100 µM and a TGI (NCI/ADR-RES ovarian) of over 100 µM. The TGI (OVCAR-4 ovarian) was over 100 µM, the TGI (OVCAR-8 ovarian) was over 100 µM and the TGI (PC-3 prostate) was over 100 µM. The TGI (RXF 393 renal) was over 100 µM, the TGI (SF-295 CNS) was over 100 µM and the TGI (SK-MEL-28 melanoma) was over 100 µM. The TGI (SK-MEL-5 melanoma) was over 100 µM and the TGI (SW-620 colon) was over 100 µM.
